Assay results: patent US7649002B2, “(3,5-dimethylpiperidin-1yl)(4-phenylpyrrolidin-3-yl)methanone derivatives as MCR4 agonists” (Pfizer Inc, priority 2004, dated 2010)
Blank lines part the entries; values can stand above or below the molecule they belong to.

How the values were obtained:
human MCR4 receptor [1] = molecular target: T1, human MCR4 receptor (Homo sapiens, UniProt P32245); assay: MCR4 standard functional assay (Protocol C): cAMP AlphaScreen in HEK cells; type: cell-based; conditions: Table 5
T1 construct: expressed in transfected cells
T1 sequence (P32245 whole entry): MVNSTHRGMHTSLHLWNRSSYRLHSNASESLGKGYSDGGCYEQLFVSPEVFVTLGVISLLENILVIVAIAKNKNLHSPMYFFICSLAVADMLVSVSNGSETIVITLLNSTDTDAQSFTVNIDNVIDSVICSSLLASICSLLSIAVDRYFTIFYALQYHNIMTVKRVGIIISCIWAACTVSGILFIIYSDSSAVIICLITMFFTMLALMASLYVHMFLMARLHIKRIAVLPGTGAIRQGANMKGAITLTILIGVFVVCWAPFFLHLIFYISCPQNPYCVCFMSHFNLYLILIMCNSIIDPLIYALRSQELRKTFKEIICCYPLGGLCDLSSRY
Description: (§1) Stimulation of adenylate cyclase following receptor activation is a widely used measure of functional activity for a number of receptor systems. The functional assay to measure cyclic AMP (cAMP) utilises human embryonic kidney (HEK) cells that stably express the human melanocortin MCR1, MCR3 or MCR4 receptor. Activation of MCR1, MCR3 or MCR4 receptors stimulates adenylate cyclase, generating cAMP, which is measured using AlphaScreen™ (PerkinElmer assay kits.
(§2) The AlphaScreen™ cAMP assay kit consists of ‘donor beads’, ‘acceptor beads’, and biotinylated cAMP which links the different beads together. Excitation of this linked complex at […] in the Fusion™-α microplate analyser results in light emission between […].
(§3) (i) MCR1. MCR3 and MCR4 Standard Functional Assay Methodology [Assay Protocol A, B AND C Respectively]
(§4) Determination of activity against the human MCR1, MCR3 and MCR4 receptor subtypes was carried out for compounds according to the present invention using three immortalised human embryonic kidney (HEK) cell lines that had been biologically engineered to express the human melanocortin MCR1, MCR3 or MCR4 receptor subtypes. These cell lines were engineered using protocols akin to those outlined by Gouarderes et al (Gouarderes, C., (2002) Neuroscience, 115(2); 349-361).
(§5) Such-compound-induced activation of these MCR1, MCR3 or MCR4 receptors lead to the stimulation of the cellular enzyme adenylate cyclase, which in turn lead to the cellular generation, and intra-cellular accumulation, of cyclic adenosine monophosphate (cAMP). […] Intracellular levels of cAMP were quantified using the commercially available AlphaScreen™ assay kits from PerkinElmer. A detailed assay protocol and an explanation of the concept underlying this kit is available through the PerkinElmer website (www.perkinelmer.com). The protocol listed below provides a summary this information.
(§6) The quantity of intracellular cAMP produced by compound-induced activation of the MCR1, MCR3 and MCR4 receptors in these three cell lines was measured using a Fusion™-α microplate analyser set to stimulate at a wavelength of 680 nm and to measure the energy emitted at wave lengths between […]. Compound-induced increases in MCR1, MCR3 or MCR4 receptor activation were subsequently quantified as a decrease in the quantity of light emitted at wavelengths between […]. Data analysis was subsequently performed using a curve-fitting program and the apparent potency of the test compound (expressed as an EC50 and defined as the effective compound concentration that elicited 50% of the maximum compound-induced response) extrapolated from the fitted curve.
Stimulation buffer (as per AlphaScreen™ protocol): HBSS supplemented with 0.5 mM IBMX, 5 mM HEPES, 0.1% (w/v) BSA and 10 mM MgCl2. […]

human MCR3 receptor = molecular target: T2, human MCR3 receptor (Homo sapiens, UniProt P41968); assay: MCR3 standard functional assay (Protocol B): cAMP AlphaScreen in HEK cells; type: cell-based; conditions: Table 5
T2 construct: expressed in transfected cells
T2 sequence (P41968 whole entry): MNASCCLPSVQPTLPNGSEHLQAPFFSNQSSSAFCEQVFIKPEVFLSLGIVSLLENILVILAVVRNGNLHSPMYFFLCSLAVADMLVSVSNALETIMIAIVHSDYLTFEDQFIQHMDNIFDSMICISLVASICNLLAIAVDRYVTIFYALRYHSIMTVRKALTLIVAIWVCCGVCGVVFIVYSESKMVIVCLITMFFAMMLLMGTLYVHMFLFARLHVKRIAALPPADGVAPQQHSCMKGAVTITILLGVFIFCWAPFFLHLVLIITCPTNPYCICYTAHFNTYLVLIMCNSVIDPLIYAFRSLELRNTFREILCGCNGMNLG
Description: as §1, §2, §3, §4, §5, §6
Stimulation buffer (as per AlphaScreen™ protocol): HBSS supplemented with 0.5 mM IBMX, 5 mM HEPES, 0.1% (w/v) BSA and 10 mM MgCl2.
Lysis buffer (as per AlphaScreen™ protocol): 5 mM HEPES solution supplemented with 0.1% (w/v) BSA and 0.3% (v/v) Tween-20.
Detection mix (as per AlphaScreen™ protocol): Lysis buffer supplemented with the biotinylated cAMP (10 nM) and Donor beads (10 μg/ml) as supplied in the AlphaScreenT cAMP assay kit.
For the MCR1, MCR3 and MCR4 standard functional assay methodologies compounds were initially dissolved in DMSO to give a compound concentration of 4 mM and then further diluted for the assay in stimulation buffer to give actual concentrations 2-fold greater than that desired as the final assay concentration.
The three HEK cell lines, as detailed hereinbefore, expressing the human MCR1, MCR3 or MCR4 receptor subtypes were grown in T225 vent cap flasks containing 50 ml of growth medium (DMEM supplemented with 10% (v/v) FCS, 2 mM L-Glutamine, 25 mM HEPES and 1.0 mg/ml Geneticin) and maintained in a cell incubator at a temperature of 37° C. and in an environment containing 5% CO2. Cells were harvested when they reached 80-90% confluency by first removing the existing growth medium and then washing with PBS that had been pre-warmed to a temperature of 37° C. […]

[2] = system: men with psychogenic and organic ED; conditions: cited from earlier work
human MCR4 receptor [3] = molecular target: T1, human MCR4 receptor; assay: MCR4 improved functional assay (Protocol E): CHO-K1-MC4R-CRE-β-lactamase reporter; type: cell-based
Source text: (ii) MCR5 Standard Functional Assay Methodology and MCR4 Improved Functional Assay Methodology [Assay Protocol D and E Respectively] […] These cell lines were engineered using protocols akin to those outlined by Zaccolo et al (Zaccolo, M., (2000) Nature, 2(1); 25-29). Compound-induced activation of the MCR5 or MCR4 receptors in these two cell lines stimulated the production, and intracellular accumulation, of the enzyme β-lactamase. The quantity of β-lactamase enzyme produced was directly proportional to the degree to which the test compound activated the MCR5 or MCR4 receptors present on these cells and was quantified using the P-lactamase gene reporter analysis kit that is commercially available from Invitrogen Life Technologies. An in-depth description of this technology and assay protocols are available from the Invitrogen web site (www.invitrogen.com). The protocol listed below provides a summary of that assay methodology. The quantity of β-lactamase enzyme produced by compound-induced activation of the MCR5 or MCR4 receptors expressed in these cell lines was quantified using a LjI Biosystems Analyst™ HT 96.384 plate reader set to excite at a wave length of 405 nm, and measure the energy emitted at wave lengths of 450 nm and 530 nm. Cellular responses were quantified by dividing the measured energy emitted at a wavelength of 450 nm by the measured energy emitted at a wavelength of 530 nm. […] CCF4-AM was dissolved in 100% DMSO to give a final solution concentration of 1 mM. This solution was termed Solution A. Probenecid was dissolved in 200 mM NaOH to give a final solution concentration of 200 mM. This solution was termed Solution D. Composition of the β-lactamase assay dye solution: for 1072 μL of assay dye solution combine: 12 μL of Solution A, 60 μL of Solution B, 925 μL of Solution C and 75 μL of Solution D. […] Cells were grown in T225 vent cap flasks containing 50 ml of growth medium and maintained in a cell incubator at a temperature of 37° C. and in an environment containing 5% CO2. The composition of the growth medium for the CHO-K1-MC5R-CRE-β-lactamase was 90% v/v DMEM supplemented with; Glutamax-1, 25 mM HEPES, 10% v/v foetal calf serum (FCS), 1 mM sodium pyruvate, 0.1 mM non essential amino acids and 800 μg/ml genetic in. For the CHO-K1-MC4R-CRE-β-lactamase this growth media was further supplemented with […] Zeocin. Cells were harvested when they reached 80-90% confluency by first removing the existing growth medium and then washing with PBS that had been pre-warmed to a temperature of 37° C. This PBS was then removed and 5 ml of cell dissociation fluid added to the flask. These cells were incubated for 5 minutes in a cell incubator set at a temperature of 37° C. and in an environment containing 5% CO2 to detach the cells. When cells were detached, pre-warmed growth media was added, the cells re-suspended and mixed gently to achieve a single cell suspension by pipetting. This cell suspension was then used for experimentation, or transferred into a new T225 flask to perpetuate the cell culture. […] For each assay the cell plates were then retuned to a cell incubator maintained at a temperature of 37° C. and in an environment containing 5% CO2 overnight before performing the assay on the second assay day. […] For the MCR4 improved functional assay methodology the solution of cyclohexamide was not added. Subsequently, 10 μL of the test compound solution was transferred to the assay plate. The assay plate was then transferred to a cell incubator, set at 37° C. and in an environment containing 5% CO2, and left for 4 hours for the MCR4 improved assay methodology, or 5 hours for the MCR5 standard assay methodology. After this incubation period the plate was removed from the incubator, 10 μL of the […] assay dye solution was added to each well and then the plate returned to the cell incubator.

human MCR5 receptor = molecular target: T3, human MCR5 receptor (Homo sapiens, UniProt P33032); assay: MCR5 standard functional assay (Protocol D): CHO-K1-MC5R-CRE-β-lactamase reporter; type: cell-based; conditions: Table 6; for Selectivity MCR5/MCR4: MCR4 by Protocol E; for EC50: Protocol D
T3 construct: expressed in transfected cells
T3 sequence (P33032 whole entry): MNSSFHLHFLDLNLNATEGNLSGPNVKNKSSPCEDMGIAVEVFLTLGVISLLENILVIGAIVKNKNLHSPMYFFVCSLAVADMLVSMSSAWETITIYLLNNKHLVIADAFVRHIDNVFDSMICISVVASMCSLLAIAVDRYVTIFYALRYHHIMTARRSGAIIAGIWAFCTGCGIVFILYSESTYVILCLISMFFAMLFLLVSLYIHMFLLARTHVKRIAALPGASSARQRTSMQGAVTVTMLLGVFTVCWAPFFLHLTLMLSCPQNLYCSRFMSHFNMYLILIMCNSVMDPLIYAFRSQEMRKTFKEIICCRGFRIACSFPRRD
Source text: These cell lines were engineered using protocols akin to those outlined by Zaccolo et al (Zaccolo, M., (2000) Nature, 2(1); 25-29). Compound-induced activation of the MCR5 or MCR4 receptors in these two cell lines stimulated the production, and intracellular accumulation, of the enzyme β-lactamase. The quantity of β-lactamase enzyme produced was directly proportional to the degree to which the test compound activated the MCR5 or MCR4 receptors present on these cells and was quantified using the P-lactamase gene reporter analysis kit that is commercially available from Invitrogen Life Technologies. An in-depth description of this technology and assay protocols are available from the Invitrogen web site (www.invitrogen.com). The protocol listed below provides a summary of that assay methodology. The quantity of β-lactamase enzyme produced by compound-induced activation of the MCR5 or MCR4 receptors expressed in these cell lines was quantified using a LjI Biosystems Analyst™ HT 96.384 plate reader set to excite at a wave length of 405 nm, and measure the energy emitted at wave lengths of 450 nm and 530 nm. Cellular responses were quantified by dividing the measured energy emitted at a wavelength of 450 nm by the measured energy emitted at a wavelength of 530 nm. […] CCF4-AM was dissolved in 100% DMSO to give a final solution concentration of 1 mM. This solution was termed Solution A. Probenecid was dissolved in 200 mM NaOH to give a final solution concentration of 200 mM. This solution was termed Solution D. Composition of the β-lactamase assay dye solution: for 1072 μL of assay dye solution combine: 12 μL of Solution A, 60 μL of Solution B, 925 μL of Solution C and 75 μL of Solution D. […] Cells were grown in T225 vent cap flasks containing 50 ml of growth medium and maintained in a cell incubator at a temperature of 37° C. and in an environment containing 5% CO2. The composition of the growth medium for the CHO-K1-MC5R-CRE-β-lactamase was 90% v/v DMEM supplemented with; Glutamax-1, 25 mM HEPES, 10% v/v foetal calf serum (FCS), 1 mM sodium pyruvate, 0.1 mM non essential amino acids and 800 μg/ml genetic in. For the CHO-K1-MC4R-CRE-β-lactamase this growth media was further supplemented with […] Zeocin. Cells were harvested when they reached 80-90% confluency by first removing the existing growth medium and then washing with PBS that had been pre-warmed to a temperature of 37° C. This PBS was then removed and 5 ml of cell dissociation fluid added to the flask. These cells were incubated for 5 minutes in a cell incubator set at a temperature of 37° C. and in an environment containing 5% CO2 to detach the cells. When cells were detached, pre-warmed growth media was added, the cells re-suspended and mixed gently to achieve a single cell suspension by pipetting. This cell suspension was then used for experimentation, or transferred into a new T225 flask to perpetuate the cell culture. On the first day of the assay cells were harvested as described above. […] For each assay the cell plates were then retuned to a cell incubator maintained at a temperature of 37° C. and in an environment containing 5% CO2 overnight before performing the assay on the second assay day. […] For the MCR4 improved functional assay methodology the solution of cyclohexamide was not added. Subsequently, 10 μL of the test compound solution was transferred to the assay plate. […] After this incubation period the plate was removed from the incubator, 10 μL of the […] assay dye solution was added to each well and then the plate returned to the cell incubator.

EC50 (human MCR4 receptor [1]): 45 nM
Molecule: Cc1ccc([C@@]2(O)[C@H](C)CN(C(=O)[C@@H]3CN(C(C)(C)C)C[C@H]3c3ccc(F)cc3F)C[C@@H]2C)cc1 [Example 4, (3R,4R,5S)-1-{[(3S,4R)-1-tert-Butyl-4-(24-difluorophenyl)pyrrolidin-3-yl]carbonyl}-3,5-dimethyl-4-(4-methylphenyl)piperidin-4-ol]

EC50 (human MCR4 receptor [3]; Protocols C or E, read-out: functional potency at the MC4 receptor (EC50)): < 50 nM
EC50 (human MCR4 receptor [3]; Table 6, read-out: MCR4 EC50): 23 nM
Selectivity MCR5/MCR4 (human MCR5 receptor): 772
EC50 (human MCR5 receptor): 17800 nM
Molecule: C[C@@H]1CN(C(=O)[C@@H]2CN(C(C)(C)C)C[C@H]2c2ccc(F)cc2F)C[C@H](C)[C@@]1(O)c1ccccn1.Cl [Example 22, (3R,4R,5S)-1-[(3S,4R)-1-tert-Butyl-4-(2,4-difluorophenyl)pyrrolidin-3-yl]carbonyl-3,5-dimethyl-4-pyridin-2-ylpiperidin-4-ol hydrochloride]

The remaining lines, values behind:

Molecule: CCCC[C@@]1(O)[C@H](C)CN(C(=O)[C@@H]2CN(C(C)(C)C)C[C@H]2c2ccc(F)cc2F)C[C@@H]1C [Example 3, (3R,4R,5S)-4-Butyl-1-{[(3S,4R)-1-tert-butyl-4-(2,4-difluorophenyl)pyrrolidin-3-yl]carbonyl}-3,5-dimethylpiperidin-4-ol]
EC50 (human MCR4 receptor [1]): 44 nM
Selectivity MCR3/MCR4 (human MCR3 receptor; MCR4 by Protocol C): 60
EC50 (human MCR3 receptor; Protocol B): 2620 nM

Molecule: Melanotan II
doses after which increased sexual desire was reported ([2]; 13/19 doses, vs placebo P<0.01): 68%
subjects with severe nausea ([2]; dose of 0.025 mg/kg): 12.9%
men with penile erection ([2]; in the absence of sexual stimulation, 20 men with psychogenic and organic ED): 17 of 20
mean duration of Rigiscan tip rigidity>80% ([2]; men with ED, monitored 6 hours): 41 min

Molecule: C[C@@H]1CN(C(=O)[C@@H]2CN(C(C)(C)C)C[C@H]2c2ccc(F)cc2F)C[C@H](C)[C@@]1(O)c1ccc(F)cc1F.Cl [Example 15, (3R,4R,5S)-1-{[(3S,4R)-1-tert-butyl-4-(2,4-difluorophenyl)pyrrolidin-3-yl]carbonyl}-4-(2,4-difluorophenyl)-3,5-dimethylpiperidin-4-ol hydrochloride]
EC50 (human MCR4 receptor [3]; MCR4 EC50 (nM), Table 6): 6.3 nM
EC50 (human MCR4 receptor [3]; functional potency at the MC4 receptor (EC50), Protocols C or E): < 50 nM
Selectivity MCR5/MCR4 (human MCR5 receptor): 556
EC50 (human MCR5 receptor): 3500 nM
